Values of other authors, collected in publication PMC10878532, “Sperm Toolbox—A selection of small molecules to study human spermatozoa” (PLOS ONE, 2024).
Counter-ions that a name gives are not always drawn.

B1: Urinastatin (protein, UniProt P02760 206-352, looked up)
Inter-alpha-trypsin inhibitor …: AVLPQEEEGSGGGQLVTEVTKKEDSCQLGYSAGPCMGMTSRYFYNGTSMACETFQYGGCMGNGNNFVTEKECLQTCRTVAACNLPIVRGPCRAFIQLWAFDAVKGKCVLFPYGGCQGNGNKFYSEKECREYCGVPGDGDEELLRFSN
modifications: Inter-alpha-trypsin inhibitor light chain
notes: interferes with liquefaction

Test system: spermatozoa
Parameters: method as in per compound as listed in column References of Table 1
Settings: summaries of reported effects; ref per compound as listed in Table 1; cited from earlier work
In the case of `Nc1nonc1C(=O)c1cccc(OCc2nc3ccccc3[nH]2)c1` [ASI-8], the “Published Phenotype” value is given as “Blocks soluble adenyl cyclase (sAC)”.
For `COc1cc2nc(N(C)CCCNC(=O)C3CCCO3)nc(N)c2cc1OC` (stereo not shown) [Alfuzosin], the “Published Phenotype” value is listed as “Interferes with ejaculation”.
In the case of `CCCCC/C=C\C/C=C\C/C=C\C/C=C\CCCC(=O)NCCO` [Anandamide], the “Published Phenotype” value is listed as “Reduces sperm motility”.
For `CC(=O)N1CCC(C(=O)N(CCCN2CCN(Cc3ccc(F)cc3)CC2)c2ccc(C)c(Cl)c2)CC1` [B07 hydrochloride], the “Published Phenotype” value is given as “Reduction of sperm motility”.
In the case of `CC1(C)CC=C(c2ccccc2)c2cc(/C=C/c3ccc(C(=O)O)cc3)ccc21` [BMS-189453], the “Published Phenotype” value is listed as “Interferes with spermatogenesis”.
For `Cn1c(=O)c2c(-c3ccccc3)n3c(c2n(C)c1=O)[C@H](c1ccc(Br)o1)Oc1ccc(C(=O)O)cc1-3` [BPO-27], the “Published Phenotype” value is listed as “CTFR inhibitor patent”.
In the case of `Oc1c(Cl)cc(Cl)cc1Sc1cc(Cl)cc(Cl)c1O` [Bithionol], the “Published Phenotype” value is given as “Blocks sAC”.
For `O=C(O)c1ccc(/C=C2/SC(=S)N(c3cccc(C(F)(F)F)c3)C2=O)cc1` [CTFRinh-172], the “Published Phenotype” value is given as “Blocks progesterone induced acrosome reaction; blocks sperm hyperactivation; blocks recombinant ZP3 induced acrosome reaction”.
For `CCOC(=O)CSc1nc(=O)c(NCC(=O)OC)n[nH]1` [Compound B4], the “Published Phenotype” value is listed as “Reduces sperm motility”.
For `OCCN(CCO)c1nc(N2CCCCC2)c2nc(N(CCO)CCO)nc(N3CCCCC3)c2n1` [Dipyridamole], the “Published Phenotype” value is given as “Enhances sperm motility”.
In the case of `CCN(CC)C(=S)SSC(=S)N(CC)CC` [Disulfiram], the “Published Phenotype” value is given as “immotile sperm; spermicidal”.
In the case of `COc1ccc2nc([S@@+]([O-])Cc3ncc(C)c(OC)c3C)[nH]c2c1` [Esomeprazole], the “Published Phenotype” value is listed as “Reduces sperm motility”.
For `COC(=O)c1c(C)[nH]c(C)c1C(=O)c1ccccc1Cc1ccccc1` [FPL 64176], the “Published Phenotype” value is given as “Modulates evoked Ca^2+ response”.
For `CC(C)C(C(=O)OC(C#N)c1cccc(Oc2ccccc2)c1)c1ccc(Cl)cc1` (stereo not shown) [Fenvalerate], the “Published Phenotype” value is given as “Blocks progesterone induced acrosome reaction”.
In the case of `C=C[C@@]1(C)CC(=O)[C@]2(O)[C@@]3(C)[C@@H](O)CCC(C)(C)[C@@H]3[C@H](O)[C@H](OC(C)=O)[C@@]2(C)O1` [Forskolin], the “Published Phenotype” value is given as “Stimulates acrosome reaction”.
For `CN(C)CCCn1cc(C2=C(c3c[nH]c4ccccc34)C(=O)NC2=O)c2ccccc21` [GF 109203X], the “Published Phenotype” value is listed as “Blocks progesterone induced acrosome reaction; blocks progesterone induced Ca^2+ response”.
In the case of `CCc1cc(Nc2nccc(-c3c(-c4ccc(OC)c(C(=O)Nc5c(F)cccc5F)c4)nc4ccccn34)n2)c(OC)cc1N1CCC(N2CCN(S(C)(=O)=O)CC2)CC1` [GSK1904529A], the “Published Phenotype” value is listed as “Inhibition of hyperactivation”.
For `COc1cc2ncn(-c3cc(OCc4ccccc4C(F)(F)F)c(C(N)=O)s3)c2cc1OC` [GW 843682X], the “Published Phenotype” value is listed as “Enhances sperm motility”.
In the case of `O=c1c(-c2ccc(O)cc2)coc2cc(O)cc(O)c12` [Genistein], the “Published Phenotype” value is listed as “Blocks progesterone induced acrosome reaction; blocks progesterone induced Ca^2+ response”.
In the case of `Cc1cc2c(C(C)C)c(O)c(O)c(C=O)c2c(O)c1-c1c(C)cc2c(C(C)C)c(O)c(O)c(C=O)c2c1O` [Gossypol], the “Published Phenotype” value is given as “Causes azoospermia”.
In the case of `O=S(=O)(NCCNC/C=C/c1ccc(Br)cc1)c1cccc2cnccc12` [H 89 dihydrochloride], the “Published Phenotype” value is listed as “Evokes Ca^2+ signaling in sperm cells”.
In the case of `O=C(c1cccs1)c1no[n+]([O-])c1C(=O)c1cccs1` [HC-056456], the “Published Phenotype” value is given as “Blocks Ca^2+ and Na^+ entry; blocks onset of hyperactive motility”.
In the case of `CO[C@H]1[C@@H](OC)C[C@H](C)[C@@H](OC)C2=CC(=O)C=C(NC(=O)/C(C)=C/C=C\[C@H](OC)[C@@H](OC(N)=O)/C(C)=C/[C@@H]1C)C2=O` [Herbimycin a], the “Published Phenotype” value is given as “Blocks progesterone induced acrosome reaction; blocks progesterone induced Ca^2+ response”.
In the case of `Oc1c(Cl)cc(Cl)c(Cl)c1Cc1c(O)c(Cl)cc(Cl)c1Cl` [Hexachlorophene], the “Published Phenotype” value is given as “Reduces sperm motility; blocks sAC”.
In the case of `CC(C)Cn1c(=O)n(C)c(=O)c2[nH]cnc21` [IBMX], the “Published Phenotype” value is listed as “Modulates capacitation”.
In the case of `CC(C)Cn1cnc2c(N)nc3ccccc3c21` [Imiquimod], the “Published Phenotype” value is given as “Reduction of sperm motility; only sperm with X chromosome”.
In the case of `Cc1sc2c(c1C)C(c1ccc(Cl)cc1)=N[C@@H](CC(=O)OC(C)(C)C)c1nnc(C)n1-2` [JQ1], the “Published Phenotype” value is given as “Interferes with spermatogenesis; reduces sperm count; reduces motility”.
For `COc1cc(SC)ccc1C(=O)N1CCC(Cc2ccccc2)CC1` [JX 401], the “Published Phenotype” value is listed as “Modulates Ca^2+ response”.
In the case of `CCCCCCOC(=O)[C@]1(O)C[C@@H]2O[C@@]1(C)n1c3ccccc3c3c4c(c5c6ccccc6n2c5c31)C(=O)NC4` [KT 5720], the “Published Phenotype” value is listed as “Evokes Ca^2+ signaling in sperm”.
In the case of `Nc1nc(Cl)cc(N(Cc2cccs2)C2CC2)n1` [LRE1], the “Published Phenotype” value is listed as “Prevents hyperactivation”.
For `CC(C)c1ccc2c(c1)CC[C@H]1[C@](C)(CN)CCC[C@]21C` [Leelamine hydrochloride], the “Published Phenotype” value is listed as “Modulates P4 evoked Ca^2+ response”.
In the case of `CCCCCCCCCCCCCCCCOCC(COCC(F)(F)F)OP(=O)(O)OC` (stereo not shown) [MJ33], the “Published Phenotype” value is given as “Prevents capacitation-associated tyrosine phosphorylation by PKA”.
For `COCC(=O)O[C@]1(CCN(C)CCCc2nc3ccccc3[nH]2)CCc2cc(F)ccc2[C@@H]1C(C)C` [Mibefradil], the “Published Phenotype” value is listed as “Blocks progesterone induced Ca^2+ response”.
In the case of `CCCCN1C[C@H](O)[C@@H](O)[C@H](O)[C@H]1CO` [Miglustat], the “Published Phenotype” value is given as “Interferes with spermatogenesis”.
In the case of `CC(C)[C@H]1c2ccc(F)cc2CC[C@@]1(CCN(C)CCCc1nc2ccccc2[nH]1)OC(=O)C1CC1` [NNC 55–0396 dihydrochloride], the “Published Phenotype” value is listed as “Blocks ccl-20 induced Ca^2+ response; Modulates CatSper”.
For `N=C(N)c1ccc2cc(OC(=O)c3ccc(N=C(N)N)cc3)ccc2c1` [Nafamostat], the “Published Phenotype” value is listed as “Interferes with liquefaction; reduces sperm motility”.
In the case of `O=C(Nc1ccc([N+](=O)[O-])cc1Cl)c1cc(Cl)ccc1O` [Niclosamide], the “Published Phenotype” value is given as “Shape abnormality”.
In the case of `O=C(O)c1cccnc1Nc1cccc(C(F)(F)F)c1` [Niflumic acid], the “Published Phenotype” value is listed as “Blocks acrosome reaction induced by recombinant rhZP3”.
For `Cc1ccc(S(=O)(=O)c2c(N)n(CC(O)c3ccc([N+](=O)[O-])cc3)c3nc4ccccc4nc23)cc1` (stereo not shown) [Oprea1_544341], the “Published Phenotype” value is listed as “Reduces sperm motility; role of glycolysis in sperm motility”.
In the case of `C[C@@H]1O[C@@H](O[C@H]2C[C@@H](O)[C@]3(CO)[C@H]4[C@H](O)C[C@]5(C)[C@@H](C6=CC(=O)OC6)CC[C@]5(O)[C@@H]4CC[C@]3(O)C2)[C@H](O)[C@H](O)[C@H]1O` [Ouabain], the “Published Phenotype” value is given as “Reduces sperm motility”.
For `c1ccc2c(c1)SCc1c-2[nH]c2ccccc12` [PD 146176], the “Published Phenotype” value is given as “Antagonizing negative effects of ROS on sperm function such as acrosome reaction”.
For `CN(c1ccccc1CNc1nc(Nc2ccc3c(c2)CC(=O)N3)ncc1C(F)(F)F)S(C)(=O)=O` [PF 431396], the “Published Phenotype” value is listed as “Blocks capacitation”.
In the case of `Cc1[nH]c(/C=C2\C(=O)Nc3ccc(S(=O)(=O)Cc4c(Cl)cccc4Cl)cc32)c(C)c1C(=O)N1CCC[C@@H]1CN1CCCC1` [Pha-665752], the “Published Phenotype” value is given as “Modulates P4 evoked Ca^2+ response”.
In the case of `c1cnc2c(c1)ccc1cccnc12` [Phenanthroline], the “Published Phenotype” value is given as “Inhibit proteolytic activity of PSA”.
In the case of `COC(=O)[C@]1(C)CC[C@]2(C)CC[C@]3(C)C4=CC=C5C(=CC(=O)C(O)=C5C)[C@]4(C)CC[C@@]3(C)[C@@H]2C1` [Pristimerin], the “Published Phenotype” value is given as “Modulates sperm motility; reduces progesterone induced Ca^2+ response”.
For `CCOCc1nc2c(N)nc3ccccc3c2n1CC(C)(C)O` [Resiquimod], the “Published Phenotype” value is given as “Reduction of sperm motility; only sperm with X chromosome”.
For `[Na+].[Na+].[Na+].[O]=[V]([O-])([O-])[O-]` [Sodium orthovanadate], the “Published Phenotype” value is listed as “Blocks progesterone induced acrosome reaction; blocks progesterone induced Ca^2+ response”.
In the case of `CC(C)(O)c1ccn2c(-c3ccc(F)c(-c4ccc(F)cc4C#N)c3)cnc2c1F` [TP 003], the “Published Phenotype” value is given as “Enhances sperm motility”.
In the case of `C=CC[C@@H]1/C=C(\C)C[C@H](C)C[C@H](OC)[C@H]2O[C@@](O)(C(=O)C(=O)N3CCCC[C@H]3C(=O)O[C@H](/C(C)=C/[C@@H]3CC[C@@H](O)[C@H](OC)C3)[C@H](C)[C@@H](O)CC1=O)[C@H](C)C[C@@H]2OC` [Tacrolimus], the “Published Phenotype” value is given as “Blocks progesterone induced acrosome reaction”.
For `COc1cn(-c2ccc(-n3cccn3)cc2F)nc(-c2ccnn2-c2ccccc2)c1=O` [Tak-063], the “Published Phenotype” value is given as “Enhances sperm motility”.
For `CCOc1ccccc1OCCN[C@H](C)Cc1ccc(OC)c(S(N)(=O)=O)c1` [Tamsulosin], the “Published Phenotype” value is listed as “Interferes with ejaculation”.
In the case of `O=c1sn(-c2cccc3ccccc23)c(=O)n1Cc1ccccc1` [Tideglusib], the “Published Phenotype” value is given as “Spermicidal; vaginal treatment”.
For `Nc1ccc(-c2ccc3ncc4ccc(=O)n(-c5cccc(C(F)(F)F)c5)c4c3c2)cn1` [Torin 2], the “Published Phenotype” value is given as “Enhances sperm motility”.
In the case of `COc1ccc(CCCN2CCC(COC(c3ccccc3)c3ccccc3)CC2)cc1` [UK 78282 hydrochloride], the “Published Phenotype” value is listed as “Modulates Ca^2+ response”.
In the case of `O.O.O.OO.OO.[K+].[OH-].[V].c1cnc2c(c1)ccc1cccnc12` [bpV(phen)], the “Published Phenotype” value is given as “Blocks progesterone induced acrosome reaction; blocks progesterone induced Ca^2+ response”.
For `CC(C)(C)c1ccc(S(=O)(=O)Nc2cnc3[nH]c(C(=O)N[C@H]4CCC[C@H]4O)c(-c4ccccc4)c3c2)cc1` [compound 68853496], the “Published Phenotype” value is listed as “Patent; sAC inhibitor”.
For NVP-AEW541, the “Published Phenotype” value is given as “Inhibition of hyperactivity”.
In the case of B1, the “Published Phenotype” value is listed as “Interferes with liquefaction; reduces sperm motility”.
